# Results as given in ChEMBL document CHEMBL1152582, “Discovery of trans-N-[1-(2-fluorophenyl)-3-pyrazolyl]-3-oxospiro[6-azaisobenzofuran-1(3H),1'-cyclohexane]-4'-carboxamide, a potent and orally active neuropeptide Y Y5 receptor antagonist” (Bioorg Med Chem, 2009).
# Activity calls are given as the source filed them. No cut-off for these calls is given here.
# Experiments:
# in vitro = details: rat, hepatocytes
# Description: Clearance in rat hepatocytes
# [1] = target: T1, Neuropeptide Y receptor type 5 (Homo sapiens, UniProt Q15761)
# T1 sequence (Q15761 whole entry): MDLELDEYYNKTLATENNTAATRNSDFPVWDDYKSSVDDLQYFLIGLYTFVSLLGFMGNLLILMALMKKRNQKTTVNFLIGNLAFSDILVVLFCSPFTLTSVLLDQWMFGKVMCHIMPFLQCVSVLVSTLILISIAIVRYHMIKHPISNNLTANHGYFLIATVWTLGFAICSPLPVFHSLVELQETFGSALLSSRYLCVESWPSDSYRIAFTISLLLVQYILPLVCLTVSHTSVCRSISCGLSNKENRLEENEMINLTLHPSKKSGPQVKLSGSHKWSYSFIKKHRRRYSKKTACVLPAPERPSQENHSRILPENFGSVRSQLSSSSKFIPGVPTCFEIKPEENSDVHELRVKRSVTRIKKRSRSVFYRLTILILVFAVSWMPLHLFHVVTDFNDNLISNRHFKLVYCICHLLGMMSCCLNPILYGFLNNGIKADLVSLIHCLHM
# Description: Displacement of [125I]PYY from human recombinant Y5 receptor
# physchem = details: buffer, pH 7.4
# Description: Lipophilicity, log D at pH 7.4
# in vivo [2] = details: rat, plasma, po, 10 mg/kg
# Description: Plasma concentration in rat at 10 mg/kg, po after 2 hrs
# in vivo [3] = details: rat, CSF, po, 10 mg/kg
# Description: Drug level in rat CSF at 10 mg/kg, po after 2 hrs
# [4] = target: T2, Neuropeptide Y receptor type 5 (Rattus norvegicus, UniProt Q63634)
# T2 sequence (Q63634 whole entry): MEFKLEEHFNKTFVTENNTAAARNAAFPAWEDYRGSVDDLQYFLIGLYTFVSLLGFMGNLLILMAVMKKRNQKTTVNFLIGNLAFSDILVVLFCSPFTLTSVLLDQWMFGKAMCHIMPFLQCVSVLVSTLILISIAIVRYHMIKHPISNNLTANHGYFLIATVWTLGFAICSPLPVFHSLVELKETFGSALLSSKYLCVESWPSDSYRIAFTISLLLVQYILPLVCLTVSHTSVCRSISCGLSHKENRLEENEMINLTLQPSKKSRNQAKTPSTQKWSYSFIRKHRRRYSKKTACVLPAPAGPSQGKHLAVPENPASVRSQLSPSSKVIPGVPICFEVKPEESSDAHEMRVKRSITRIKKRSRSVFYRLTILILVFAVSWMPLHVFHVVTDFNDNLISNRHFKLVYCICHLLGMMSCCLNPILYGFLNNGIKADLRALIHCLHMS
# Description: Inhibition of rat Y5 receptor
# Rattus norvegicus [5] = assay: Inhibition of [D-Trp34]NPY-induced food intake in Sprague-Dawley rat assessed as minimum effective dose treated po 2 hrs before [D-Trp34]NPY challenge; assay type: functional; details: read-out: MED
# Brain = details: rat, in vivo, po, 10 mg/kg, 2 h
# Description: Drug level in rat brain at 10 mg/kg, po after 2 hrs
# in vivo [6] = details: rat, CSF/plasma, po, 10 mg/kg
# Description: Ratio of drug level in CSF to plasma in rat at 10 mg/kg, po after 2 hrs
# [7] = Ratio of drug level in brain to plasma in rat at 10 mg/kg, po after 2 hrs; assay type: ADME, organism-based; parameters: dose 10 mg/kg, route oral; details: read-out: BPR
# CYP3A = assay: Inhibition of CYP3A at 10 uM; assay type: ADME
# Mus musculus [8] = species on record: Mus musculus; assay: Ex vivo Y5 receptor occupancy in mouse brain at plasma level of 100 to 200 ng/ml; assay type: functional, organism-based
# Rattus norvegicus [9] = assay: Inhibition of [D-Trp34]NPY-induced food intake in Sprague-Dawley rat at 0.3 mg/kg, po treated 2 hrs before [D-Trp34]NPY challenge; assay type: functional
# Rattus norvegicus [10] = assay: Inhibition of [D-Trp34]NPY-induced food intake in Sprague-Dawley rat at 3 mg/kg, po treated 2 hrs before [D-Trp34]NPY challenge; assay type: functional
# Mus musculus [11] = species on record: Mus musculus; assay: Ex vivo Y5 receptor occupancy in mouse brain at plasma level of 10 to 20 ng/ml; assay type: functional, organism-based
# Rattus norvegicus [12] = assay: Inhibition of [D-Trp34]NPY-induced food intake in Sprague-Dawley rat at 1 mg/kg, po treated 2 hrs before [D-Trp34]NPY challenge; assay type: functional
# Rattus norvegicus [13] = assay: Inhibition of [D-Trp34]NPY-induced food intake in Sprague-Dawley rat at 10 mg/kg, po treated 2 hrs before [D-Trp34]NPY challenge; assay type: functional
# Rattus norvegicus [14] = assay: Inhibition of NPY-induced food intake in Sprague-Dawley rat at 10 mg/kg, po treated 2 hrs before [D-Trp34]NPY challenge; assay type: functional
Compound,CLhep predicted (in vitro) [L/h/kg],IC50 [1] [nM],logD (physchem),concentration at 2 h (in vivo [2]) [µM],concentration at 2 h (in vivo [3]) [µM],Drug uptake (Brain) [nmol/g],further results
O=C1O[C@]2(CC[C@H](C(=O)Nc3ncc(-c4ccccc4)cn3)CC2)c2cnccc21,2.34,–,–,–,–,–,–
O=C1O[C@]2(CC[C@H](C(=O)Nc3cnc(-c4ccccc4)cn3)CC2)c2ncccc21,2.34,3.9,–,–,–,–,–
O=C1O[C@]2(CC[C@H](C(=O)Nc3ccn(-c4ccccc4)n3)CC2)c2cccnc21,0.24,4.4,2.8,6.46,0.416,2.79,IC50 [4]: 1.7 nM; minimal effective dose (Rattus norvegicus [5]): 3 mg/kg; Kp at 2 h (in vivo [6]): 0.15
O=C1O[C@]2(CC[C@H](C(=O)Nc3ccn(-c4ccccc4)n3)CC2)c2cnccc21,1.2,2.3,3.1,2.94,0.276,3.13,Kp at 2 h [7]: 1.06; IC50 [4]: 2.2 nM; minimal effective dose (Rattus norvegicus [5]): > 10 mg/kg; Kp at 2 h (in vivo [6]): 0.088
O=C1O[C@]2(CC[C@H](C(=O)Nc3ccn(-c4cccc(F)c4)n3)CC2)c2cnccc21,0.6,2,3.4,1.09,0.077,1.36,–
O=C1O[C@]2(CC[C@H](C(=O)Nc3cnn(-c4ccccc4)c3)CC2)c2cnccc21,< 0.06,2.2,–,1.52,0.045,0.39,Kp at 2 h (in vivo [6]): 0.115
O=C1O[C@]2(CC[C@H](C(=O)Nc3cnc(-c4ccccc4)cn3)CC2)c2ccncc21,2.52,2.4,–,–,–,–,inhibition at 10 µM (CYP3A): > 50%
O=C1O[C@]2(CC[C@H](C(=O)Nc3cnc(-c4ccccc4)cn3)CC2)c2cnccc21,2.16,2.2,3.39,–,–,–,–
O=C1O[C@]2(CC[C@H](C(=O)Nc3cc(-c4ccccc4)[nH]n3)CC2)c2ncccc21,–,26,–,–,–,–,–
O=C1O[C@]2(CC[C@H](C(=O)Nc3ccc(-c4ccccc4)cn3)CC2)c2cnccc21,0.84,2.1,–,0.02,–,–,–
O=C1O[C@]2(CC[C@H](C(=O)Nc3ccn(-c4ccc(F)cc4)n3)CC2)c2cnccc21,0.42,0.92,3.2,0.89,0.081,1.24,IC50 [4]: 2.1 nM; minimal effective dose (Rattus norvegicus [5]): 1 mg/kg
O=C1O[C@]2(CC[C@H](C(=O)Nc3cnc(-c4ccccc4)cn3)CC2)c2ccccc21,2.1,1.5,> 4,–,–,–,–
O=C1O[C@]2(CC[C@H](C(=O)Nc3cc(-c4ccccc4)on3)CC2)c2cnccc21,0.36,2.1,–,0.29,–,–,–
O=C1O[C@]2(CC[C@H](C(=O)Nc3cnn(-c4ccccc4)c3)CC2)c2cccnc21,0.06,1.3,2.9,6.68,0.091,0.5,IC50 [4]: 4.7 nM; minimal effective dose (Rattus norvegicus [5]): 10 mg/kg; Kp at 2 h (in vivo [6]): 0.18
O=C1O[C@]2(CC[C@H](C(=O)Nc3cc(-c4ccccc4)n[nH]3)CC2)c2ccncc21,0.54,2.9,–,–,–,–,inhibition at 10 µM (CYP3A): > 50%
O=C1O[C@]2(CC[C@H](C(=O)Nc3csc(-c4ccccc4)n3)CC2)c2cnccc21,0.72,1.2,–,0.19,–,–,–
O=C1OC2(CCC(C(=O)Nc3cnc(-c4ccccc4)cn3)CC2)c2ccccc21 (configuration not stated),–,–,–,–,–,–,IC50 [4]: 2.5 nM; minimal effective dose (Rattus norvegicus [5]): > 10 mg/kg; Activity (Mus musculus [8]): Active
O=C1O[C@]2(CC[C@H](C(=O)Nc3cnn(-c4ccccc4)n3)CC2)c2cnccc21,1.26,0.89,3.4,0.68,0.042,1.33,Kp at 2 h (in vivo [6]): 0.032
O=C1O[C@]2(CC[C@H](C(=O)Nc3ncc(-c4ccccc4)cn3)CC2)c2cccnc21,2.94,–,–,–,–,–,–
O=C1O[C@]2(CC[C@H](C(=O)Nc3cc(-c4ccccc4)on3)CC2)c2ncccc21,2.16,2.4,3.7,–,–,–,–
O=C1O[C@]2(CC[C@H](C(=O)Nc3cc(-c4ccccc4)[nH]n3)CC2)c2cnccc21,0.18,2.7,3.16,6.1,0.059,0.5,–
O=C1O[C@]2(CC[C@H](C(=O)Nc3ccn(-c4ccccc4F)n3)CC2)c2cnccc21 [MK-0557],0.54,–,3.2,1.59,0.152,2.15,inhibition in vivo at 0.3 mg/kg (Rattus norvegicus [9]): 27%; inhibition in vivo at 3 mg/kg (Rattus norvegicus [10]): 61%; Activity (Mus musculus [11]): Active; inhibition in vivo at 1 mg/kg (Rattus norvegicus [12]): 43%; inhibition in vivo at 10 mg/kg (Rattus norvegicus [13]): 83%; IC50 [4]: 2.1 nM; minimal effective dose (Rattus norvegicus [5]): 3 mg/kg; inhibition in vivo at 10 mg/kg (Rattus norvegicus [14]): 22%
O=C1O[C@]2(CC[C@H](C(=O)Nc3ncc(-c4ccccc4)cn3)CC2)c2ccncc21,2.52,–,–,–,–,–,inhibition at 10 µM (CYP3A): > 50%
O=C1O[C@]2(CC[C@H](C(=O)Nc3ncc(-c4ccccc4)cn3)CC2)c2ncccc21,2.94,–,–,–,–,–,–
O=C1O[C@]2(CC[C@H](C(=O)Nc3cnc(-c4ccccc4)cn3)CC2)c2cccnc21,1.08,4.2,3.1,3.75,0.174,2.5,–
O=C1O[C@]2(CC[C@H](C(=O)Nc3cc(-c4ccccc4)[nH]n3)CC2)c2cccnc21,0.12,5.4,–,–,–,–,–
